≈ marks a conversion by molar mass, not a printed value.
Experiments:
Format in all cases: functional
Cryptococcus neoformans [1] = test: Antifungal activity against Cryptococcus neoformans after 72 hrs by broth microdilution method
Trichophyton rubrum [2] = test: Antifungal activity against Trichophyton rubrum after 7 days by broth microdilution method; settings: 168 h
[3] = test system: Trichophyton mentagrophytes; test: Antifungal activity against Trichophyton mentagrophytes after 7 days by broth microdilution method; settings: 168 h
[4] = test system: Trichophyton mentagrophytes; test: Antifungal activity against Trichophyton mentagrophytes assessed as fungal growth at 0.25 ug/ml after 7 days by broth microdilution method
Trichophyton rubrum [5] = test: Antifungal activity against Trichophyton rubrum assessed as fungal growth at 0.25 ug/ml after 7 days by broth microdilution method
Cryptococcus neoformans [6] = test: Antifungal activity against Cryptococcus neoformans assessed as fungal growth at 0.125 ug/ml after 72 hrs by broth microdilution method

| Structure (SMILES) | MIC50 (Cryptococcus neoformans [1]) [µg/mL] | MIC80 (Cryptococcus neoformans [1]) [µg/mL] | MIC50 (Trichophyton rubrum [2]) [µg/mL] | MIC80 (Trichophyton rubrum [2]) [µg/mL] | MIC50 [3] [µg/mL] | MIC80 [3] [µg/mL] | Activity [4] [%] | Activity (Trichophyton rubrum [5]) [%] | Activity (Cryptococcus neoformans [6]) [%] |
| --- | --- | --- | --- | --- | --- | --- | --- | --- | --- |
| CN(Cc1ccc(C(C)(C)C)cc1)Cc1cccc2ccccc12 [BUTENAFINE] | 0.5 (≈ 1.57 µM) | 1 (≈ 3.15 µM) | 0.03 (≈ 0.0945 µM) | 0.06 (≈ 0.189 µM) | 0.06 (≈ 0.189 µM) | 0.125 (≈ 0.394 µM) |  |  |  |
| C[C@H](c1cccc2ccccc12)N(C)Cc1ccccc1 | 16 (≈ 58.1 µM) | > 16 |  |  |  |  |  |  |  |
| C[C@H](c1cccc2ccccc12)N(C)Cc1ccccc1-c1ccccc1 | > 32 | > 32 |  |  |  |  |  |  |  |
| C[C@H](c1cccc2ccccc12)N(C)Cc1ccncc1 | 16 (≈ 57.9 µM) | > 32 |  |  |  |  |  |  |  |
| C[C@H](c1cccc2ccccc12)N(C)Cc1ccc(OC(F)(F)F)cc1 | 2 (≈ 5.56 µM) | 4 (≈ 11.1 µM) | 0.5 (≈ 1.39 µM) | 1 (≈ 2.78 µM) |  | 0.5 (≈ 1.39 µM) | >50 |  |  |
| C[C@@H](c1ccc(C(C)(C)C)cc1)N(C)Cc1cccc2ccccc12 | 2 (≈ 6.03 µM) | 4 (≈ 12.1 µM) | 0.5 (≈ 1.51 µM) | 1 (≈ 3.02 µM) | 0.5 (≈ 1.51 µM) | 1 (≈ 3.02 µM) |  |  |  |
| CN(Cc1cccc2ccccc12)[C@H](CF)c1ccc(C(C)(C)C)cc1 | > 32 | > 32 | > 32 | > 32 | > 32 | > 32 |  |  |  |
| C[C@H](c1cccc2ccccc12)N(C)Cc1ccccc1Br | > 32 | > 32 |  |  |  |  |  |  |  |
| C[C@H](c1cccc2ccccc12)N(C)Cc1ccc(-c2ccccc2)cc1 | > 16 | > 32 |  |  |  |  |  |  |  |
| C[C@H](c1cccc2ccccc12)N(C)Cc1ccccc1C(F)(F)F | > 32 | > 32 |  |  |  |  |  |  |  |
| Cc1ccc(CN(C)[C@H](C)c2cccc3ccccc23)cc1 | 0.5 (≈ 1.73 µM) | 1 (≈ 3.46 µM) | 0.25 (≈ 0.864 µM) | 0.5 (≈ 1.73 µM) | 0.25 (≈ 0.864 µM) | 0.5 (≈ 1.73 µM) |  |  |  |
| C[C@H](c1cccc2ccccc12)N(C)Cc1cc(C(F)(F)F)cc(C(F)(F)F)c1 | > 32 | > 32 |  |  |  |  |  |  |  |
| C[C@H](c1cccc2ccccc12)N(C)Cc1ccc(C(F)(F)F)cc1 | 0.5 (≈ 1.46 µM) | 1 (≈ 2.91 µM) | 0.25 (≈ 0.728 µM) | 0.5 (≈ 1.46 µM) | 0.25 (≈ 0.728 µM) | 0.5 (≈ 1.46 µM) |  |  |  |
| C[C@H](c1cccc2ccccc12)N(C)Cc1ccc(Br)cc1 | 0.5 (≈ 1.41 µM) | 1 (≈ 2.82 µM) | 0.125 (≈ 0.353 µM) | 0.25 (≈ 0.706 µM) | 0.25 (≈ 0.706 µM) | 0.5 (≈ 1.41 µM) |  |  |  |
| C[C@H](c1ccc(C(C)(C)C)cc1)N(C)Cc1cccc2ccccc12 | > 32 | > 32 | > 32 | > 32 | > 32 | > 32 |  |  |  |
| C[C@@H]1[C@H](O)[C@@H](C)/C=C/C=C/C=C/C=C/C=C/C=C/C=C/[C@H](O[C@@H]2O[C@H](C)[C@@H](O)[C@H](N)[C@@H]2O)C[C@@H]2O[C@](O)(C[C@@H](O)C[C@@H](O)[C@H](O)CC[C@@H](O)C[C@@H](O)CC(=O)O[C@H]1C)C[C@H](O)[C@H]2C(=O)O [AMPHOTERICIN B] | 0.25 (≈ 0.271 µM) | < 0.5 | > 0.25 | < 0.5 | 0.5 (≈ 0.541 µM) | < 1 |  |  |  |
| CC(C)(C)c1ccc([C@H](CF)NCc2cccc3ccccc23)cc1 | > 32 | > 32 | 2 (≈ 5.96 µM) | 4 (≈ 11.9 µM) | 2 (≈ 5.96 µM) | 4 (≈ 11.9 µM) |  |  |  |

| Structure (SMILES) | MIC50 (Cryptococcus neoformans [1]) [µg/mL] | MIC80 (Cryptococcus neoformans [1]) [µg/mL] | MIC50 (Trichophyton rubrum [2]) [µg/mL] | MIC80 (Trichophyton rubrum [2]) [µg/mL] | MIC50 [3] [µg/mL] | MIC80 [3] [µg/mL] | Activity [4] [%] | Activity (Trichophyton rubrum [5]) [%] | Activity (Cryptococcus neoformans [6]) [%] |
| --- | --- | --- | --- | --- | --- | --- | --- | --- | --- |
| C[C@H](c1cccc2ccccc12)N(C)Cc1ccccc1F | > 32 | > 32 |  |  |  |  |  |  |  |
| C[C@H](c1cccc2ccccc12)N(C)Cc1ccc(F)cc1 | 4 (≈ 13.6 µM) | 8 (≈ 27.3 µM) |  |  |  |  |  |  |  |
| C[C@H](c1cccc2ccccc12)N(C)Cc1ccc([N+](=O)[O-])cc1 | 2 (≈ 6.24 µM) | > 16 | 0.25 (≈ 0.78 µM) | 0.5 (≈ 1.56 µM) | 1 (≈ 3.12 µM) | 2 (≈ 6.24 µM) |  |  |  |
| C[C@@H](c1cccc2ccccc12)N(C)Cc1ccc(C(C)(C)C)cc1 | 1 (≈ 3.02 µM) | 2 (≈ 6.03 µM) |  |  |  |  |  |  |  |
| C[C@H](c1cccc2ccccc12)N(C)Cc1cccc(Br)c1 | 4 (≈ 11.3 µM) | 8 (≈ 22.6 µM) | 1 (≈ 2.82 µM) | 2 (≈ 5.65 µM) | 2 (≈ 5.65 µM) | 4 (≈ 11.3 µM) |  |  |  |
| CC(C)(C)c1ccc([C@@H](CF)NCc2cccc3ccccc23)cc1 | > 32 | > 32 | > 32 | > 32 | > 32 | > 32 |  |  |  |
| C[C@H](c1cccc2ccccc12)N(C)Cc1ccc([Si](C)(C)C)cc1 | 0.5 (≈ 1.44 µM) | 1 (≈ 2.88 µM) |  | 0.5 (≈ 1.44 µM) |  | 0.5 (≈ 1.44 µM) | >50 | >50 |  |
| C[C@H](c1cccc2ccccc12)N(C)Cc1cc(C(C)(C)C)cc(C(C)(C)C)c1 | 32 (≈ 82.6 µM) | > 32 |  |  |  |  |  |  |  |
| C[C@H](c1cccc2ccccc12)N(C)Cc1ccc(OCc2ccccc2)cc1 | 0.5 (≈ 1.31 µM) | 1 (≈ 2.62 µM) | 0.125 (≈ 0.328 µM) | 0.25 (≈ 0.655 µM) | 0.125 (≈ 0.328 µM) | 0.25 (≈ 0.655 µM) |  |  |  |
| C[C@H](c1cccc2ccccc12)N(C)Cc1ccccn1 | > 32 | > 32 |  |  |  |  |  |  |  |
| C[C@H](c1cccc2ccccc12)N(C)Cc1ccc(C(C)(C)C)cc1 |  | 0.25 (≈ 0.754 µM) | 0.06 (≈ 0.181 µM) | 0.125 (≈ 0.377 µM) | 0.06 (≈ 0.181 µM) | 0.125 (≈ 0.377 µM) |  |  | >50 |
| C[C@H](c1cccc2ccccc12)N(C)Cc1cccc(C(F)(F)F)c1 | 4 (≈ 11.6 µM) | 8 (≈ 23.3 µM) | 2 (≈ 5.82 µM) | 4 (≈ 11.6 µM) | 4 (≈ 11.6 µM) | > 32 |  |  |  |
| C[C@H](c1cccc2ccccc12)N(C)Cc1cccnc1 | > 32 | > 32 |  |  |  |  |  |  |  |
| COc1ccc(CN(C)[C@H](C)c2cccc3ccccc23)cc1 | 2 (≈ 6.55 µM) | 4 (≈ 13.1 µM) | 1 (≈ 3.27 µM) | 2 (≈ 6.55 µM) | 1 (≈ 3.27 µM) | 2 (≈ 6.55 µM) |  |  |  |
| CN(Cc1cccc2ccccc12)[C@@H](CF)c1ccc(C(C)(C)C)cc1 | > 32 | > 32 | > 32 | > 32 | > 32 | > 32 |  |  |  |
| Cc1cc(C(C)(C)C)cc(C)c1CN(C)[C@H](C)c1cccc2ccccc12 | 1 (≈ 2.78 µM) | 32 (≈ 89 µM) | > 32 | > 32 | > 32 | > 32 |  |  |  |

Source: ChEMBL document CHEMBL2424576, “Chiral N-benzyl-N-methyl-1-(naphthalen-1-yl)ethanamines and their in vitro antifungal activity against Cryptococcus neoformans, Trichophyton mentagrophytes and Trichophyton rubrum” (2013)
